Laboratory results from patent US9790169B2, “IDO inhibitors” (BRISTOL-MYERS SQUIBB COMPANY, priority 2015, dated 2017).

biological target: human IDO1 (Homo sapiens, UniProt P14902); assay: Assessment of human IDO-1 inhibitory activity in Hela cells (Interferon-gamma stimulated HeLa cells, Ehrlich reagent, absorbance 490 nm); type: cell-based; design: endogenous in cells; host or cells: HeLa cells stimulated with interferon-gamma; details: Hela Human IDO-1 cellular assay
Outline: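 IDO activity induced by 18 h IFN-γ (human 10 ng/ml or murine 5 ng/ml, final) after 1 h compound pre-treatment of HeLa cells at 37 °C. Supernatant kynurenine detected via Ehrlich reagent absorbance at 490 nm following 3% TCA at 50 °C; IC50 set against no-IFN-γ and untreated-stimulated controls.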

human IDO1, sequence (P14902 whole entry): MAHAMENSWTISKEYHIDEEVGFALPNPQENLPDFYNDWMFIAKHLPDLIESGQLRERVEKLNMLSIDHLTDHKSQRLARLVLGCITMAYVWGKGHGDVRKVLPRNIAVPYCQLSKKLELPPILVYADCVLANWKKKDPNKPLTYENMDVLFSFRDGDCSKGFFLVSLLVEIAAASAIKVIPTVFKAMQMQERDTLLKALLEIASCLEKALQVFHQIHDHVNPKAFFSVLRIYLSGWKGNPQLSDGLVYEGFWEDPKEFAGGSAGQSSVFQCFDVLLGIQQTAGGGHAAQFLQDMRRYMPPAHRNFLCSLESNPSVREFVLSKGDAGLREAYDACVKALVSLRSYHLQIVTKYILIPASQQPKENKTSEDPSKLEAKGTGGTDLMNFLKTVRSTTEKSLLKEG

IC50 [µM]	SMILES
< 0.005	CCN(c1ccc([C@@H](COC)CC(=O)O)cc1Nc1ccc(C(F)(F)F)cc1)C1CCOCC1 (single isomer, unassigned) [Example 364]
< 0.05	CCN(c1ccc([C@@H](COC)CC(=O)O)cc1Nc1ccc(F)cc1F)C1CCOCC1 (single isomer, unassigned) [Example 365]
< 0.05	CCN(c1ccc([C@@H](COC)CC(=O)O)cc1Nc1ccc(C#N)cc1C)C1CCOCC1 (single isomer, unassigned) [Example 367]
< 0.05	CCN(c1ccc([C@@H](COC)CC(=O)O)cc1Nc1cccc(C#N)c1)C1CCOCC1 (single isomer, unassigned) [Example 368]
> 0.05	CCN(c1ccc([C@@H](COC)CC(=O)O)cc1Nc1ccccc1C#N)C1CCOCC1 (single isomer, unassigned) [Example 369]
< 0.05	CCOc1cc(Nc2cc([C@@H](COC)CC(=O)O)ccc2N(CC)C2CCOCC2)ccc1C#N (single isomer, unassigned) [Example 370]
< 0.05	CCN(c1ccc([C@@H](COC)CC(=O)O)cc1Nc1ccc(C#N)c(OCC(F)F)c1)C1CCOCC1 (single isomer, unassigned) [Example 371]
< 0.05	CCN(c1ccc([C@@H](COC)CC(=O)O)cc1Nc1ccc(C#N)c(OCC(F)(F)F)c1)C1CCOCC1 (single isomer, unassigned) [Example 372]
< 0.05	CCN(c1ccc([C@@H](COC)CC(=O)O)cc1Nc1ccc(C#N)c(C)n1)C1CCOCC1 (single isomer, unassigned) [Example 382]
> 0.05	CCN(c1ccc([C@@H](COC)CC(=O)O)cc1Nc1cc(C)c(C#N)cn1)C1CCOCC1 (single isomer, unassigned) [Example 384]
> 0.05	CCN(c1ccc([C@@H](COC)CC(=O)O)cc1Nc1ccc(C(N)=O)cc1)C1CCOCC1 (single isomer, unassigned) [Example 385]
> 0.05	CCN(c1ccc([C@@H](COC)CC(=O)O)cc1Nc1ccc(S(=O)(=O)CC)cc1)C1CCOCC1 (single isomer, unassigned) [Example 386]
> 0.05	CCN(c1ccc([C@@H](COC)CC(=O)O)cc1NC(=O)Nc1ccc(Cl)cc1F)C1CCOCC1 (single isomer, unassigned) [Example 423]
< 0.05	CCN(c1ccc([C@@H](COC)CC(=O)O)cc1NC(=O)Nc1ccc(Cl)cc1Cl)C1CCOCC1 (single isomer, unassigned) [Example 430]
> 0.05	CCN(c1ccc([C@@H](COC)CC(=O)O)cc1NC(=O)Nc1ccc(F)cc1F)C1CCOCC1 (single isomer, unassigned) [Example 431]
> 0.05	CCN(c1ccc([C@H](COC)CC(=O)O)cc1NC(=O)Nc1ccc(Cl)cc1Cl)C1CCOCC1 (single isomer, unassigned) [Example 441]
> 0.05	CCN(c1ccc([C@H](COC)CC(=O)O)cc1NC(=O)Nc1ccc(F)cc1F)C1CCOCC1 (single isomer, unassigned) [Example 442]
< 0.005	CCC(CC(=O)O)c1ccc(N2C[C@@H]3C[C@H]2CN3C(=O)OC(C)(C)C)c(Nc2ccc(C#N)cc2)c1 (single isomer, unassigned) [Example 443 Diastereomer 1]
< 0.05	CCC(CC(=O)O)c1ccc(N2C[C@@H]3C[C@H]2CN3C(=O)OC(C)(C)C)c(Nc2ccc(C#N)cc2)c1 (single isomer, unassigned) [Example 443 Diastereomer 2]
< 0.005	CCC(CC(=O)O)c1ccc(N2C[C@@H]3C[C@H]2CN3C(=O)OC(C)(C)C)c(Nc2ccccc2)c1 (single isomer, unassigned) [Example 444]
> 0.05	CCOc1ncc(Nc2cc(C(CC)CC(=O)O)ccc2N2C[C@@H]3C[C@H]2CN3C(=O)OC(C)(C)C)cn1 (single isomer, unassigned) [Example 448]
< 0.05	CCC(CC(=O)O)c1ccc(N2C[C@@H]3C[C@H]2CN3C(=O)OC)c(Nc2ccc(C#N)cc2)c1 (single isomer, unassigned) [Example 449]
> 0.05	CCC(CC(=O)O)c1ccc(N2C[C@@H]3C[C@H]2CN3CC(F)F)c(Nc2ccc(C#N)cc2)c1 (single isomer, unassigned) [Example 450]
< 0.05	COCC(CC(=O)O)c1ccc(N2C[C@@H]3C[C@H]2CN3C(=O)OC(C)(C)C)c(Nc2ccc(C#N)cc2)c1 (single isomer, unassigned) [Example 451 Diastereomer 1]
> 0.05	COCC(CC(=O)O)c1ccc(N2C[C@@H]3C[C@H]2CN3C(=O)OC(C)(C)C)c(Nc2ccc(C#N)cc2)c1 (single isomer, unassigned) [Example 451 Diastereomer 2]
< 0.05	CC[C@@H](CC(=O)O)c1ccc(N(CC)C2CCOCC2)c(Nc2cnc(N(C)C)nc2)c1 (single isomer, unassigned) [Example 459]
< 0.005	CC[C@@H](CC(=O)O)c1ccc(N(CC)C2CCOCC2)c(Nc2ccc(C#N)cn2)c1 (single isomer, unassigned) [Example 461]

IC50 [µM]	SMILES
< 0.005	CC[C@@H](CC(=O)O)c1ccc(N(CC)C2CCOCC2)c(Nc2ccc(OC)cn2)c1 (single isomer, unassigned) [Example 462]
> 0.05	CC[C@@H](CC(=O)O)c1ccc(N(CC)C2CCOCC2)c(Nc2ccc(N(C)C)nc2)c1 (single isomer, unassigned) [Example 463]
< 0.005	CC[C@@H](CC(=O)O)c1ccc(N(CC)C2CCOCC2)c(Nc2cnc(OC)cn2)c1 (single isomer, unassigned) [Example 464]
< 0.005	CCOc1cnc(Nc2cc([C@@H](CC)CC(=O)O)ccc2N(CC)C2CCOCC2)cn1 (single isomer, unassigned) [Example 465]
< 0.005	CCOc1ccc(Nc2cc([C@@H](CC)CC(=O)O)ccc2N(CC)C2CCOCC2)cn1 (single isomer, unassigned) [Example 466]
< 0.05	CCOc1ccc(Nc2cc([C@@H](CC)CC(=O)O)ccc2N(CC)C2CCOCC2)nn1 (single isomer, unassigned) [Example 467]
< 0.05	CC[C@H](CC(=O)O)c1ccc(N(CC)C2CCOCC2)c(Nc2cnc(N(C)C)nc2)c1 (single isomer, unassigned) [Example 502]
< 0.005	CC[C@H](CC(=O)O)c1ccc(N(CC)C2CCOCC2)c(Nc2ccc(Cl)cn2)c1 (single isomer, unassigned) [Example 503]
< 0.05	CC[C@H](CC(=O)O)c1ccc(N(CC)C2CCOCC2)c(Nc2ccc(OC)cn2)c1 (single isomer, unassigned) [Example 505]
> 0.05	CC[C@H](CC(=O)O)c1ccc(N(CC)C2CCOCC2)c(Nc2ccc(N(C)C)nc2)c1 (single isomer, unassigned) [Example 506]
< 0.005	CC[C@H](CC(=O)O)c1ccc(N(CC)C2CCOCC2)c(Nc2cnc(OC)cn2)c1 (single isomer, unassigned) [Example 507]
< 0.005	CCOc1cnc(Nc2cc([C@H](CC)CC(=O)O)ccc2N(CC)C2CCOCC2)cn1 (single isomer, unassigned) [Example 508]
< 0.005	CCOc1ccc(Nc2cc([C@H](CC)CC(=O)O)ccc2N(CC)C2CCOCC2)cn1 (single isomer, unassigned) [Example 509]
< 0.005	CCOc1ccc(Nc2cc([C@H](CC)CC(=O)O)ccc2N(CC)C2CCOCC2)nn1 (single isomer, unassigned) [Example 510]
< 0.05	CC[C@H](CC(=O)O)c1ccc(N(CC)C2CCOCC2)c(Nc2ccc(S(=O)(=O)CC)cc2)c1 (single isomer, unassigned) [Example 525]
< 0.005	CCCN(c1ccc([C@@H](CC)CC(=O)O)cc1Nc1ccc(OC)nc1)C1CCOCC1 (single isomer, unassigned) [Example 542]
< 0.005	CCCN(c1ccc([C@@H](CC)CC(=O)O)cc1NC(=O)Nc1ccc(Cl)cc1F)C1CCOCC1 (single isomer, unassigned) [Example 544]
< 0.05	CCCN(c1ccc([C@@H](CC)CC(=O)O)cc1NC(=O)Nc1ccc(C#N)cc1)C1CCOCC1 (single isomer, unassigned) [Example 545]
< 0.005	CCCN(c1ccc([C@H](CC)CC(=O)O)cc1Nc1cnc(OCC)nc1)C1CCOCC1 (single isomer, unassigned) [Example 546]
< 0.005	CCCN(c1ccc([C@H](CC)CC(=O)O)cc1Nc1ccc(C#N)cc1)C1CCOCC1 (single isomer, unassigned) [Example 547]
< 0.05	CCCN(c1ccc([C@H](CC)CC(=O)O)cc1Nc1ccc2nc(C)sc2c1)C1CCOCC1 (single isomer, unassigned) [Example 548]
< 0.005	CCCN(c1ccc([C@H](CC)CC(=O)O)cc1Nc1ccc(F)cc1)C1CCOCC1 (single isomer, unassigned) [Example 549]
< 0.005	CCCN(c1ccc([C@H](CC)CC(=O)O)cc1Nc1ccc2c(c1)OC(F)(F)O2)C1CCOCC1 (single isomer, unassigned) [Example 550]
< 0.005	CCCN(c1ccc([C@H](CC)CC(=O)O)cc1Nc1cnc(OC)nc1)C1CCOCC1 (single isomer, unassigned) [Example 551]
< 0.005	CCCN(c1ccc([C@H](CC)CC(=O)O)cc1Nc1ccc(Cl)cc1)C1CCOCC1 (single isomer, unassigned) [Example 552]
< 0.005	CCCN(c1ccc([C@H](CC)CC(=O)O)cc1Nc1ccc(OC)nc1)C1CCOCC1 (single isomer, unassigned) [Example 553]

SMILES	IC50 [µM]
CCN(c1ccc([C@@H](COC)CC(=O)O)cc1Nc1ccc(C#N)c(Cl)c1)C1CCOCC1 (single isomer, unassigned) [Example 381]	< 0.05
CCN(c1ccc([C@@H](COC)CC(=O)O)cc1Nc1ccc(C#N)c(C(F)(F)F)c1)C1CCOCC1 (single isomer, unassigned) [Example 383]	> 0.05
